{"source": "patent US9617596B2", "about": "“Biomarkers predictive for clinical response for glatiramer acetate” (TEVA PHARMACEUTICAL INDUSTRIES, LTD., priority 2012, dated 2017)", "key": {"ERAP2": {"tested_on": "ERAP2", "experiment": "ERAP2 expression in PBMC of RRMS patients over the course of GA treatment (exon arrays, PCR)", "assay_type": "in vivo, human", "conditions": "baseline, 3, 12 and 24 months of treatment (FIG. 4)", "protocol": "Relapsing-remitting multiple sclerosis patients were treated with GA. Whole blood was taken from patients at four time points including baseline (baseline, month 3, month 12 and month 24). Peripheral blood mononuclear cells (PBMCs) were cryopreserved and RNA was isolated for gene expression analysis (FIG. 3).\nGene expression analysis was performed using Affymetrix Human Exon 1.0 ST expression arrays. Preprocessing was performed with an integrated three-step approach: background correction, normalization […] implemented in the Affymetrix Expression Console. Batch effects normalization was performed with the removeBatchEffect function from limma R package.\nPCR analysis was performed in order to validate the expression of ERAP2 in Responder populations as compared to Non-Responders and Healthy Controls."}, "RRMS subjects [1]": {"tested_on": "RRMS subjects", "conditions": "over 9 months of treatment, 20 mg group (17 lesions under placebo); cited from earlier work"}, "RRMS subjects [2]": {"tested_on": "RRMS subjects", "conditions": "largest controlled study, cited from earlier work"}, "[3]": {"conditions": "daily standard dose of 20 mg; cited from earlier work"}}}
{"substance": "Glatiramer acetate [GA]", "values": [{"measurement": "ERAP2 expression change by treatment", "setting": "ERAP2", "result": "not modified"}, {"measurement": "median cumulative number of Gd-enhancing lesions", "setting": "RRMS subjects [1]", "result": 11, "unit": "lesions"}, {"measurement": "relapse rate reduced", "setting": "RRMS subjects [2]; GA 20 mg vs placebo", "result": 32, "unit": "%"}, {"measurement": "relapse rate", "setting": "RRMS subjects [2]; under GA 20 mg (1.98 under placebo)", "result": 1.34}, {"measurement": "tolerability", "setting": "[3]", "result": "generally well tolerated"}]}
